Test results published in the supplement of paper PMC11061612.

Assays:
[1] = compound: C1CC(C1)(C(=O)[O-])C(=O)[O-].N.N.[Pt+2] [Carboplatin]; details: max 10 µM
Summary of the method: (§1)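 Cancer cell lines in 1536-well plates (7.5 μl DMEM/F12 or RPMI, 10% FBS) were held 24 hours at 37°C and 5% CO2 and then dosed for 72 hours at a final DMSO of typically 0.2%. Viability was taken from CellTiter-Glo 2.0 luminescence, scaled between blank-well and DMSO-well means. Curves were fitted as two-parameter logistic models with a non-linear mixed effects model, from which the single-agent IC50 was taken.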

[2] = compound: C1CN(CCC1(C(=O)N[C@@H](CCO)C2=CC=C(C=C2)Cl)N)C3=NC=NC4=C3C=CN4 [AZD5363]; details: max 10 µM
Summary of the method: as §1

[3] = compound: C=CCn1c(=O)c2cnc(Nc3ccc(N4CCN(C)CC4)cc3)nc2n1-c1cccc(C(C)(C)O)n1 [AZD1775]; details: max 3 µM
Summary of the method: as §1

[4] = compound: CC(=O)Nc1cccc(-n2c(=O)n(C3CC3)c(=O)c3c(Nc4ccc(I)cc4F)n(C)c(=O)c(C)c32)c1 [Trametinib]; details: max 1 µM
Summary of the method: as §1

[5] = compound: CC(=O)O[C@H]1C(=O)[C@@]2(C)[C@H]([C@H](OC(=O)c3ccccc3)[C@]3(O)C[C@H](OC(=O)[C@H](O)[C@@H](NC(=O)c4ccccc4)c4ccccc4)C(C)=C1C3(C)C)[C@]1(OC(C)=O)CO[C@@H]1C[C@@H]2O [Paclitaxel]; details: max 3 µM
Summary of the method: as §1

[6] = compound: CC(=O)c1c(C)c2cnc(Nc3ccc(N4CCNCC4)cn3)nc2n(C2CCCC2)c1=O [Palbociclib]; details: max 10 µM
Summary of the method: as §1

[7] = compound: CC(C)n1c(=O)n(C)c2cnc3cc(F)c(-c4ccc(OCCCN5CCCCC5)nc4)cc3c21 [AZD1390]; details: max 0.3 µM
Summary of the method: as §1

[8] = compound: CC1(C)CCC(CN2CCN(c3ccc(C(=O)NS(=O)(=O)c4ccc(NCC5CCOCC5)c([N+](=O)[O-])c4)c(Oc4cnc5[nH]ccc5c4)c3)CC2)=C(c2ccc(Cl)cc2)C1 [Venetoclax]; details: max 1 µM
Summary of the method: as §1

[9] = compound: CC1=C(C(=CC=C1)Cl)NC(=O)C2=CN=C(S2)NC3=CC(=NC(=N3)C)N4CCN(CC4)CCO [Dasatinib]; details: max 2 µM
Summary of the method: as §1

[10] = compound: CC1=CN2[C@@H](C1)C=NC3=CC(=C(C=C3C2=O)OC)OCCCCCOC4=C(C=C5C(=C4)N=C[C@@H]6CC(=CN6C5=O)C)OC [SG3199]; details: max 0.001 µM
Summary of the method: as §1

[11] = compound: CCN(CCO)CCCOc1ccc2c(Nc3cc(CC(=O)Nc4cccc(F)c4)[nH]n3)ncnc2c1 [AZD2811]; details: max 1 µM
Summary of the method: as §1

[12] = compound: CCc1c2c(nc3ccc(O)cc13)-c1cc3c(c(=O)n1C2)COC(=O)[C@]3(O)CC [SN-38]; details: max 0.3 µM
Summary of the method: as §1

[13] = compound: CN(C)CCCOc1ccc(-c2ccc3ncc4c(c3c2)n(C2CCOCC2)c(=O)n4C)cn1 [AZD0156]; details: max 3 µM
Summary of the method: as §1

[14] = compound: CN(CC[C@H](CSC1=CC=CC=C1)NC2=C(C=C(C=C2)S(=O)(=O)NC(=O)C3=CC=C(C=C3)N4CCC(CC4)[C@H](C5=CC=CC=C5C6=CC=C(C=C6)Cl)O)S(=O)(=O)C(F)(F)F)CCO [AZD4320]; details: max 1 µM
Summary of the method: as §1

[15] = compound: COc1cc(Nc2ncc3c(n2)-c2ccc(Cl)cc2C(c2c(F)cccc2OC)=NC3)ccc1C(=O)O [Alisertib]; details: max 10 µM
Summary of the method: as §1

[16] = compound: COc1cc([C@@H]2c3cc4c(cc3[C@@H](O[C@@H]3O[C@@H]5CO[C@@H](C)O[C@H]5[C@H](O)[C@H]3O)[C@H]3COC(=O)[C@H]23)OCO4)cc(OC)c1O [Etoposide]; details: max 10 µM
Summary of the method: as §1

[17] = compound: COc1cc2ncnc(Nc3ccc(F)c(Cl)c3)c2cc1OCCCN1CCOCC1 [Gefitinib]; details: max 10 µM
Summary of the method: as §1

[18] = compound: COc1cccc(OCCCN)c1-c1cc(Nc2cnc(C#N)cn2)n[nH]1 [Prexasertib]; details: max 1 µM
Summary of the method: as §1

[19] = compound: COc1cccc2c1C(=O)c1c(O)c3c(c(O)c1C2=O)C[C@@](O)(C(=O)CO)C[C@@H]3O[C@H]1C[C@H](N)[C@H](O)[C@H](C)O1 [Doxorubicin]; details: max 1 µM
Summary of the method: as §1

[20] = compound: COc1nnc2ccc(N3CCC(c4ccc(OCCN5CCN(C)C(=O)[C@H]5C)cc4)CC3)nn12 [AZD5153]; details: max 1 µM
Summary of the method: as §1

[21] = compound: CS(=O)(=O)CCNCc1ccc(-c2ccc3ncnc(Nc4ccc(OCc5cccc(F)c5)c(Cl)c4)c3c2)o1 [Lapatinib]; details: max 10 µM
Summary of the method: as §1

[22] = compound: C[C@@H](Nc1cc(F)cc(F)c1)c1cc(C(=O)N(C)C)cc2c(=O)cc(N3CCOCC3)oc12 [AZD8186]; details: max 10 µM
Summary of the method: as §1

[23] = compound: C[C@@H](Oc1cc(-c2cnn(C3CCNCC3)c2)cnc1N)c1c(Cl)ccc(F)c1Cl [Crizotinib]; details: max 10 µM
Summary of the method: as §1

[24] = compound: C[C@@H](c1ccc2nccn2c1)n1nnc2ncc(-c3cnn(C)c3)nc21 [Savolitinib]; details: max 1 µM
Summary of the method: as §1

[25] = compound: C[C@@H]1COCCN1C2=NC(=NC(=C2)C3(CC3)[S@](=N)(=O)C)C4=C5C=CNC5=NC=C4 [AZD6738]; details: max 10 µM
Summary of the method: as §1

[26] = compound: Cc1c2c(nn1C)CSCc1cc(n(C)n1)CSc1cc(c3ccccc3c1)OCCCc1c(C(=O)O)n(C)c3c-2c(Cl)ccc13 [AZD5991]; details: max 1 µM
Summary of the method: as §1

[27] = compound: Cc1cc2ncnn2cc1Nc1ncc2c(n1)n(C1CCOCC1)c(=O)n2C [AZD7648]; details: max 10 µM
Summary of the method: as §1

[28] = compound: Cc1nc(-c2cn3c(n2)-c2ccc(-c4cnn(C(C)(C)C(N)=O)c4)cc2OCC3)n(C(C)C)n1 [Taselisib]; details: max 10 µM
Summary of the method: as §1

[29] = compound: Cn1cnc2c(F)c(Nc3ccc(Br)cc3Cl)c(C(=O)NOCCO)cc21 [Selumetinib]; details: max 10 µM
Summary of the method: as §1

[30] = compound: N#Cc1cnc(Nc2cc(NC[C@H]3CNCCO3)c(C(F)(F)F)cn2)cn1 [SRA737]; details: max 10 µM
Summary of the method: as §1

[31] = compound: NC1(c2ccc(-c3nc4ccn5c(=O)[nH]nc5c4cc3-c3ccccc3)cc2)CCC1 [MK-2206]; details: max 10 µM
Summary of the method: as §1

[32] = compound: Nc1ccn([C@@H]2O[C@H](CO)[C@@H](O)C2(F)F)c(=O)n1 [Gemcitabine]; details: max 0.3 µM
Summary of the method: as §1

[33] = compound: O=C(Nc1ccc2[nH]nc(-c3ccncc3)c2c1)[C@@H]1CCN(CC(=O)N2CCN(c3ccc(-c4ncccn4)cc3)CC2)C1; details: max 5 µM
Summary of the method: as §1

[34] = compound: O=C(c1cc(Cc2n[nH]c(=O)c3ccccc23)ccc1F)N1CCN(C(=O)C2CC2)CC1 [Olaparib]; details: max 10 µM
Summary of the method: as §1

[35] = compound: O=c1[nH]cc(F)c(=O)[nH]1 [5-Fluorouracil]; details: max 20 µM
Summary of the method: as §1

Cell Line | IC50, cell viability 72 h [1] | IC50, cell viability 72 h [2] | IC50, cell viability 72 h [3] | IC50, cell viability 72 h [4] | IC50, cell viability 72 h [5] | IC50, cell viability 72 h [6] | IC50, cell viability 72 h [7] | IC50, cell viability 72 h [8] | IC50, cell viability 72 h [9] | IC50, cell viability 72 h [10] | IC50, cell viability 72 h [11] | IC50, cell viability 72 h [12] | IC50, cell viability 72 h [13] | IC50, cell viability 72 h [14] | IC50, cell viability 72 h [15] | IC50, cell viability 72 h [16] | IC50, cell viability 72 h [17] | IC50, cell viability 72 h [18] | IC50, cell viability 72 h [19] | IC50, cell viability 72 h [20] | IC50, cell viability 72 h [21] | IC50, cell viability 72 h [22] | IC50, cell viability 72 h [23] | IC50, cell viability 72 h [24] | IC50, cell viability 72 h [25] | IC50, cell viability 72 h [26] | IC50, cell viability 72 h [27] | IC50, cell viability 72 h [28] | IC50, cell viability 72 h [29] | IC50, cell viability 72 h [30] | IC50, cell viability 72 h [31] | IC50, cell viability 72 h [32] | IC50, cell viability 72 h [33] | IC50, cell viability 72 h [34] | IC50, cell viability 72 h [35]
LoVo (Colorectal Carcinoma) | > 10000 nM | 7270 nM | 192 nM | 156 nM | 70.3 nM | 7650 nM | > 300 nM | > 1000 nM | > 2000 nM | > 1 nM | > 1000 nM | 108 nM | > 3000 nM | > 1000 nM | > 10000 nM | > 10000 nM | > 10000 nM | 24.4 nM | > 1000 nM | > 1000 nM | > 10000 nM | 952 nM | > 10000 nM | > 1000 nM | 1170 nM | > 1000 nM | > 10000 nM | 5550 nM | 5810 nM | 8630 nM | 5230 nM | 138 nM | 1680 nM | > 10000 nM | > 20000 nM
Mewo (Melanoma) | > 10000 nM | > 10000 nM | 1420 nM | 569 nM | 653 nM | > 10000 nM | > 300 nM | > 1000 nM | > 2000 nM | > 1 nM | > 1000 nM | > 300 nM | > 3000 nM | > 1000 nM | > 10000 nM | > 10000 nM | > 10000 nM | 413 nM | > 1000 nM | > 1000 nM | > 10000 nM | > 10000 nM | > 10000 nM | > 1000 nM | > 10000 nM | > 1000 nM | > 10000 nM | > 10000 nM | > 10000 nM | > 10000 nM | > 10000 nM | > 300 nM | 3570 nM | > 10000 nM | > 20000 nM
NB14 (Neuroblastoma) | > 10000 nM | > 10000 nM | 293 nM | 570 nM | < 3 nM | 2360 nM | > 300 nM | 726 nM | > 2000 nM | > 1 nM | 24.9 nM | 5.04 nM | > 3000 nM | 126 nM | 25.1 nM | 849 nM | > 10000 nM | 4.03 nM | 174 nM | 451 nM | > 10000 nM | > 10000 nM | 1280 nM | > 1000 nM | 1350 nM | 566 nM | > 10000 nM | > 10000 nM | > 10000 nM | 677 nM | 9150 nM | 128 nM | > 5000 nM | > 10000 nM | > 20000 nM
